According to article PMC9021288 (Nature Communications, 2022):

Columns and labels:
[1] = Blood to plasma ratio, rat
[2] = target: T1, human recombinant CYP2D6 (Homo sapiens, UniProt P10635); assay: CYP reaction phenotyping; format: in vitro ADME
T1 construct: purchased Bactosomes (assay run at Cyprotex)
Experimental: (§1) In vitro CYP reaction phenotyping was performed at Cyprotex (Alderly Park, United Kingdom). […] The remaining test compound at each time point was analyzed by LC-MS/MS.

[3] = target: T2, human recombinant CYP3A5 (Homo sapiens, UniProt P20815); assay: CYP reaction phenotyping; format: in vitro ADME; details: for Compound remaining (0 min = 100): CYP3A5
T2 construct: purchased Bactosomes (assay run at Cyprotex)
Experimental: as §1

[4] = target: T3, human recombinant CYP2C19 (Homo sapiens, UniProt P33261); assay: CYP reaction phenotyping; format: in vitro ADME; details: for Compound remaining (0 min = 100): CYP2C19
T3 construct: purchased Bactosomes (assay run at Cyprotex)
Experimental: as §1

[5] = target: T4, human recombinant CYP3A4 (Homo sapiens, UniProt P08684); assay: CYP reaction phenotyping; format: in vitro ADME; details: for Compound remaining (0 min = 100): CYP3A4
T4 construct: purchased Bactosomes (assay run at Cyprotex)
Experimental: as §1

[6] = target: T5, human recombinant CYP2B6 (Homo sapiens, UniProt P20813); assay: CYP reaction phenotyping; format: in vitro ADME
T5 construct: purchased Bactosomes (assay run at Cyprotex)
T5 sequence (P20813 1-491): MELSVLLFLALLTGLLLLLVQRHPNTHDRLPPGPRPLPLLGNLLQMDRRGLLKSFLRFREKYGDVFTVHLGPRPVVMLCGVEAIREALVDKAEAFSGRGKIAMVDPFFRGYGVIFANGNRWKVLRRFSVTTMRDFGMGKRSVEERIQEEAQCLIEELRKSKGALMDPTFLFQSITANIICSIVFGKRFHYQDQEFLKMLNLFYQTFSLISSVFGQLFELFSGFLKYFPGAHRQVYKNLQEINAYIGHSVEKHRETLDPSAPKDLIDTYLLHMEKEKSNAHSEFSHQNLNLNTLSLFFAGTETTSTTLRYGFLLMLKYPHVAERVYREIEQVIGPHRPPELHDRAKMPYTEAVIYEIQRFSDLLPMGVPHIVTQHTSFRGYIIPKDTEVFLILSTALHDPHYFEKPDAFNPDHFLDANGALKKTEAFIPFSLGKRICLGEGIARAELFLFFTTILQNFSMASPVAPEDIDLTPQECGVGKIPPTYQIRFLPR
Experimental: as §1

[7] = target: T6, human recombinant CYP1A2 (Homo sapiens, UniProt P05177); assay: CYP reaction phenotyping; format: in vitro ADME
T6 construct: purchased Bactosomes (assay run at Cyprotex)
T6 sequence (P05177 1-516): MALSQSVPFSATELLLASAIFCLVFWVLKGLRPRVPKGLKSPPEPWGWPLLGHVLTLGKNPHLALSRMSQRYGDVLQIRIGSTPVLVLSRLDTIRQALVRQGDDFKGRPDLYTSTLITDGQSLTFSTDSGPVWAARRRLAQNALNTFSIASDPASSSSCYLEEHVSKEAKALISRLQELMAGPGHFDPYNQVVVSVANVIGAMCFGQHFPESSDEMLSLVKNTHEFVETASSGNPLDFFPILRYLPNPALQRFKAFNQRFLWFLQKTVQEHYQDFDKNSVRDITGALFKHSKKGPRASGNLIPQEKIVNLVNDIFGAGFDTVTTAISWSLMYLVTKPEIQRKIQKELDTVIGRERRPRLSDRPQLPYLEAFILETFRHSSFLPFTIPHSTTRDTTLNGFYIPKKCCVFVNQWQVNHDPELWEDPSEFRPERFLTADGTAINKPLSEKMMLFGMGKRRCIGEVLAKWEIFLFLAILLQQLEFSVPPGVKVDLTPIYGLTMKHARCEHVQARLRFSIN
Experimental: as §1

[8] = target: T7, human recombinant CYP2C9 (Homo sapiens, UniProt P11712); assay: CYP reaction phenotyping; format: in vitro ADME
T7 construct: purchased Bactosomes (assay run at Cyprotex)
Experimental: as §1

[9] = target: T8, human recombinant CYP2C8 (Homo sapiens, UniProt P10632); assay: CYP reaction phenotyping; format: in vitro ADME
T8 construct: purchased Bactosomes (assay run at Cyprotex)
T8 sequence (P10632 1-490): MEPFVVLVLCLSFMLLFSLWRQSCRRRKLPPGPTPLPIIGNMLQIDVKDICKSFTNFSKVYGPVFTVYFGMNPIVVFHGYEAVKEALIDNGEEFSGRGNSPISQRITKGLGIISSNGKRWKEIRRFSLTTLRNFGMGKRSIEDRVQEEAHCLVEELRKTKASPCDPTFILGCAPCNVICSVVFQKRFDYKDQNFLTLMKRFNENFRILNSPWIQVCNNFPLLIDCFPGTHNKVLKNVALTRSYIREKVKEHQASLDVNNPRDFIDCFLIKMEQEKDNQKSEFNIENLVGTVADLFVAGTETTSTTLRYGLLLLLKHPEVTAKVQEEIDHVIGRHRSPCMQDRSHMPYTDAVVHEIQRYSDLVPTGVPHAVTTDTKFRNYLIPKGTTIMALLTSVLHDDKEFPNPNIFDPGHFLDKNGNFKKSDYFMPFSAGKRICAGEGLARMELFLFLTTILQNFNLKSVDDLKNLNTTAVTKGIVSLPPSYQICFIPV
Experimental: as §1

T4 sequence (P08684 whole entry): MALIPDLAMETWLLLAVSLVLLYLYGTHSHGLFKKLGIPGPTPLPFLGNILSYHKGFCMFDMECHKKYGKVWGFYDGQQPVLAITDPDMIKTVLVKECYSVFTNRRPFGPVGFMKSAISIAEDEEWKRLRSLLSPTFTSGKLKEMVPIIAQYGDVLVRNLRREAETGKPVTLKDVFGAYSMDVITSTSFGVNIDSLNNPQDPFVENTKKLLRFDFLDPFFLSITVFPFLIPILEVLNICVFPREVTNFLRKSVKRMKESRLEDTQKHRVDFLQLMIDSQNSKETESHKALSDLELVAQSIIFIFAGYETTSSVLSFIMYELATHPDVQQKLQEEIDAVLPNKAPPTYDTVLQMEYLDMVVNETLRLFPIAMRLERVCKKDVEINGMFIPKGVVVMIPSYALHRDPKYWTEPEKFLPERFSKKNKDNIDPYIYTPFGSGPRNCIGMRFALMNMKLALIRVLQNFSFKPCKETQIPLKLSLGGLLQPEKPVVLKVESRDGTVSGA
T7 sequence (P11712 whole entry): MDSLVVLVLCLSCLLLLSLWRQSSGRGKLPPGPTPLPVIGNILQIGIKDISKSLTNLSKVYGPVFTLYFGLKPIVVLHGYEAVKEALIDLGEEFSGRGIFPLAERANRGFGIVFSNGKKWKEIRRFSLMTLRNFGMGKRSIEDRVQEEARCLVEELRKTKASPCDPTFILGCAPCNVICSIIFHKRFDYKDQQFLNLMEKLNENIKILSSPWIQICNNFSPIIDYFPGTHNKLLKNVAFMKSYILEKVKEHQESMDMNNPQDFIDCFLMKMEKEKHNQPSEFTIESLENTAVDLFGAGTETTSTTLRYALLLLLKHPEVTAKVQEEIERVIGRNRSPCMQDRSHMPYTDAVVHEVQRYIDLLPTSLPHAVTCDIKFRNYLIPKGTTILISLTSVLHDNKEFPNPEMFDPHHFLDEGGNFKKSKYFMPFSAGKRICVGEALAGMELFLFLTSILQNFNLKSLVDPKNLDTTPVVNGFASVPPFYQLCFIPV
T1 sequence (P10635 whole entry): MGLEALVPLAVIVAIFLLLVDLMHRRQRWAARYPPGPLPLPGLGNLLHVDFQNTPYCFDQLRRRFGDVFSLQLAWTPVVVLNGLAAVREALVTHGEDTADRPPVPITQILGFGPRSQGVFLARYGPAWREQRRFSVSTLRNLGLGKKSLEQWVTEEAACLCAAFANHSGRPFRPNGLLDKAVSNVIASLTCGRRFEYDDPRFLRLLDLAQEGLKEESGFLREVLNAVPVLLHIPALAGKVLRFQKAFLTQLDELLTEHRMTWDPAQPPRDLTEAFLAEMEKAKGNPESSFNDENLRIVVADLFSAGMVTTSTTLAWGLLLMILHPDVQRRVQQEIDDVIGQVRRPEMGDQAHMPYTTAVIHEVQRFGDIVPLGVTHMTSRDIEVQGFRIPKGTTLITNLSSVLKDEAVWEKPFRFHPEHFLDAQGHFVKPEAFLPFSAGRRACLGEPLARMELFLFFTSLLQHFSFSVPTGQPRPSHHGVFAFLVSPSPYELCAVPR
T2 sequence (P20815 whole entry): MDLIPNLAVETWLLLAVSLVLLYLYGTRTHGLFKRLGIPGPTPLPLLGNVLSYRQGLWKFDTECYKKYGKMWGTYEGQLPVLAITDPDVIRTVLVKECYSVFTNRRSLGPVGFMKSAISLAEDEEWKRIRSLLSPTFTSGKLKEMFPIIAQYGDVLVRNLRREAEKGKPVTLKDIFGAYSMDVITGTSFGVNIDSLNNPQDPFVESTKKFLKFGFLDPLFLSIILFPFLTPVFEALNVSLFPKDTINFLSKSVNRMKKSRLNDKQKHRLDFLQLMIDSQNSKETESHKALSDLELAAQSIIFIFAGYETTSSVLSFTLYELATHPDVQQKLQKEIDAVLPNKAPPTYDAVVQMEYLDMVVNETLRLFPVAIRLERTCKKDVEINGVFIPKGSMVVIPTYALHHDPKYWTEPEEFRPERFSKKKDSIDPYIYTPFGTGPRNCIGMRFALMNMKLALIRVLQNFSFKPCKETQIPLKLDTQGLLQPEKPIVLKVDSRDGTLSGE
T3 sequence (P33261 whole entry): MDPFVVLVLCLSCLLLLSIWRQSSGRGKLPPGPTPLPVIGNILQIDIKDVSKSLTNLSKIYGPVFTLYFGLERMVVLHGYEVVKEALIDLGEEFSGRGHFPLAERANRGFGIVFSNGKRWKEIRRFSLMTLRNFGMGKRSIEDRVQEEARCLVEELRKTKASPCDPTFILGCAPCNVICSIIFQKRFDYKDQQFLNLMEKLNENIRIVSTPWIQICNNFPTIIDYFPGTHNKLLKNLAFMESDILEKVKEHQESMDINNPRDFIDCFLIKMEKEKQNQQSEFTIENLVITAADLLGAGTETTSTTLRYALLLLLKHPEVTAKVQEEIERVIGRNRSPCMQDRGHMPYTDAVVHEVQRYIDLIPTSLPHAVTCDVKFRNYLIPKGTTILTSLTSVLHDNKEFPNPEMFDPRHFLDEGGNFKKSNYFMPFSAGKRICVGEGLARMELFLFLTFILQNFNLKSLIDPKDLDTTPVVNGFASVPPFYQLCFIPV

For `C[C@@H](CNC(=O)[C@H](O)C(C)(C)CO)NC(=O)c1cc(F)c(F)cc1F` [MMV693183], the “B:P” value [1] was 0.91, the “Compound remaining (0 min = 100)” value ([2]; Incubation time (minutes) 0) was 100 and the “Compound remaining (0 min = 100)” value ([2]; Incubation time (minutes) 5) was 105. The “Compound remaining (0 min = 100)” value ([2]; Incubation time (minutes) 15) was 101, the “Compound remaining (0 min = 100)” value ([2]; Incubation time (minutes) 30) was 105 and the “Compound remaining (0 min = 100)” value ([2]; Incubation time (minutes) 45) was 106. The “role in oxidative metabolism” value ([3]; 1 µM, 45 min) was “responsible for the oxidative metabolism”, the “Compound remaining (0 min = 100)” value ([3]; Incubation time (minutes) 0) was 100 and the “Compound remaining (0 min = 100)” value ([3]; Incubation time (minutes) 5) was 101. For the same molecule, the “Compound remaining (0 min = 100)” value ([3]; Incubation time (minutes) 15) was 92.7, the “Compound remaining (0 min = 100)” value ([3]; Incubation time (minutes) 30) was 91.6 and the “Compound remaining (0 min = 100)” value ([3]; Incubation time (minutes) 45) was 93.9. The “role in oxidative metabolism” value ([4]; 1 µM, 45 min, to a lower extent) was “responsible for the oxidative metabolism”, the “Compound remaining (0 min = 100)” value ([4]; Incubation time (minutes) 0) was 100 and the “Compound remaining (0 min = 100)” value ([4]; Incubation time (minutes) 5) was 98.6. The “Compound remaining (0 min = 100)” value ([4]; Incubation time (minutes) 15) was 92.4, the “Compound remaining (0 min = 100)” value ([4]; Incubation time (minutes) 30) was 93.6 and the “Compound remaining (0 min = 100)” value ([4]; Incubation time (minutes) 45) was 95.9. For the same molecule, the “role in oxidative metabolism” value ([5]; 1 µM, 45 min) was “responsible for the oxidative metabolism”, the “Compound remaining (0 min = 100)” value ([5]; Incubation time (minutes) 0) was 100 and the “Compound remaining (0 min = 100)” value ([5]; Incubation time (minutes) 5) was 101. The “Compound remaining (0 min = 100)” value ([5]; Incubation time (minutes) 15) was 94.1, the “Compound remaining (0 min = 100)” value ([5]; Incubation time (minutes) 30) was 90.1 and the “Compound remaining (0 min = 100)” value ([5]; Incubation time (minutes) 45) was 91.5. For the same molecule, the “Compound remaining (0 min = 100)” value ([6]; Incubation time (minutes) 0) was 100, the “Compound remaining (0 min = 100)” value ([6]; Incubation time (minutes) 5) was 101 and the “Compound remaining (0 min = 100)” value ([6]; Incubation time (minutes) 15) was 104. For the same molecule, the “Compound remaining (0 min = 100)” value ([6]; Incubation time (minutes) 30) was 97.8, the “Compound remaining (0 min = 100)” value ([6]; Incubation time (minutes) 45) was 97.9 and the “Compound remaining (0 min = 100)” value ([7]; Incubation time (minutes) 0) was 100. For the same molecule, the “Compound remaining (0 min = 100)” value ([7]; Incubation time (minutes) 5) was 98.3, the “Compound remaining (0 min = 100)” value ([7]; Incubation time (minutes) 15) was 100 and the “Compound remaining (0 min = 100)” value ([7]; Incubation time (minutes) 30) was 98.6. The “Compound remaining (0 min = 100)” value ([7]; Incubation time (minutes) 45) was 102, the “Compound remaining (0 min = 100)” value ([8]; Incubation time (minutes) 0) was 100 and the “Compound remaining (0 min = 100)” value ([8]; Incubation time (minutes) 5) was 102. The “Compound remaining (0 min = 100)” value ([8]; Incubation time (minutes) 15) was 100, the “Compound remaining (0 min = 100)” value ([8]; Incubation time (minutes) 30) was 103 and the “Compound remaining (0 min = 100)” value ([8]; Incubation time (minutes) 45) was 111. The “Compound remaining (0 min = 100)” value ([9]; Incubation time (minutes) 0) was 100, the “Compound remaining (0 min = 100)” value ([9]; Incubation time (minutes) 5) was 99.9 and the “Compound remaining (0 min = 100)” value ([9]; Incubation time (minutes) 15) was 100. For the same molecule, the “Compound remaining (0 min = 100)” value ([9]; Incubation time (minutes) 30) was 101 and the “Compound remaining (0 min = 100)” value ([9]; Incubation time (minutes) 45) was 101.
